For four compounds, IC50 results are on record in ChEMBL document CHEMBL1773011, “New and more efficient multivalent glyco-ligands for asialoglycoprotein receptor of mammalian hepatocytes” (Bioorg Med Chem, 2011).

The test is described as follows: Displacement of Eu-DTPA labeled ASOR from rat primary hepatocytes Asialoglycoprotein receptor after 20 mins by fluorometric analysis. The note with it: hepatocyte. The format is cell-based.
Take `CC(=O)N[C@@H]1C(OCCCCCCNC(=O)C(CCCCNC(=O)OCc2ccccc2)N(CC(=O)NCCCCCCOC2O[C@H](CO)[C@H](O)[C@H](O)[C@H]2NC(C)=O)CC(=O)NCCCCCCOC2O[C@H](CO)[C@H](O)[C@H](O)[C@H]2NC(C)=O)O[C@@H](CO)[C@@H](O)[C@H]1O` (stereo in doubt): the IC50 is 0.012 µM.
With `CC(=O)NC1C(OCCCCCCNC(=O)CNC(=O)C[C@H](NC(=O)[C@H](CC(=O)NCC(=O)NCCCCCCOC2O[C@@H](CO)[C@@H](O)[C@@H](O)C2NC(C)=O)NC(=O)[C@@H](N)Cc2ccc(O)cc2)C(=O)NCC(=O)NCCCCCCOC2O[C@@H](CO)[C@@H](O)[C@@H](O)C2NC(C)=O)O[C@@H](CO)[C@@H](O)[C@H]1O` (single isomer, unassigned) the figure was 0.02 µM.
The value for `NCCCCC(C(=O)NCCCCCCOC1O[C@H](CO)[C@@H](O[C@@H]2O[C@H](CO)[C@H](O)[C@H](O)[C@H]2O)[C@H](O)[C@H]1O)N(CC(=O)NCCCCCCOC1O[C@H](CO)[C@@H](O[C@@H]2O[C@H](CO)[C@H](O)[C@H](O)[C@H]2O)[C@H](O)[C@H]1O)CC(=O)NCCCCCCOC1O[C@H](CO)[C@@H](O[C@@H]2O[C@H](CO)[C@H](O)[C@H](O)[C@H]2O)[C@H](O)[C@H]1O` (some centres undefined) was over 1 µM; that for `CC(=O)N[C@H]1C(OCCCCCCNC(=O)CNC(=O)CN(CC(=O)NCC(=O)NCCCCCCOC2O[C@H](CO)[C@H](O)[C@H](O)[C@H]2NC(C)=O)C(CCCCNC(=O)OCc2ccccc2)C(=O)NCC(=O)NCCCCCCOC2O[C@H](CO)[C@H](O)[C@H](O)[C@H]2NC(C)=O)O[C@H](CO)[C@H](O)[C@@H]1O` (stereo in doubt) was 0.001 µM.

Broadly, the IC50 is the concentration at which inhibition is half-maximal. Higher therefore signals lower potency.
